From patent US7968568B2, “Substituted piperidine derivatives as SST5 modulators” (Hoffmann-La Roche Inc., priority 2006, dated 2011)

The compounds below were run against T1, human subtype 5 somatostatin receptor (Homo sapiens, UniProt P35346) (assay: SSTR5 radioligand binding assay (125I-labeled 11-Tyr somatostatin-14) on CHO cell membranes). Conditions: Ki calculated from IC50 by Cheng-Prussoff equation.
T1 construct: host or cells: CHO cell line, stably transfected; membranes prepared
Experimental: A CHO cell line stably transfected with a plasmid encoding the human subtype 5 somatostatin receptor (GenBank accession number D16827) was obtained from Euroscreen. Cells were cultured and used for binding and functional assays.
Membranes of these cells were prepared by sonication in the presence of protease inhibitors and subsequent fractionating centrifugation. The protein concentration in the membrane preparation was determined using a commercial kit (BCA kit, Pierce, USA). Membranes were stored at −80° C. until use. After thawing, membranes were diluted in assay buffer (50 mM Tris-HCl at pH 7.4, 5 mM MgCl2 and 0.20% BSA) and subjected to dounce homogenization.
For binding studies, 0.1 mL membrane suspension, corresponding to app. 6×10^−15 mol receptor, was incubated for 1 h at room temperature with 0.05 nM ^125I-labeled tracer (11-Tyr somatostatin-14, Perkin-Elmer) and either test compounds in varying concentrations or, for the determination of non-specific binding, 0.001 mM non-labeled somatostatin-14. The incubation was stopped by filtration through GF/B glassfiber filters and washing with ice-cold wash buffer (50 mM Tris-HCl at pH 7.4). The bound radioactivity was measured after application of a scintillation cocktail (Microscint 40) and expressed as disintegrations per minute (dpm).
The receptor concentration was determined in a prior saturation experiment where a fixed, arbitrary amount of membranes was incubated with a concentration range of radio-labeled tracer. This allows estimating the total number of specific binding sites per amount of protein (i.e., Bmax), typically between 1 and 5 pmol/mg.
The concentration of the test compound required to result in half maximal inhibition of binding of the radio-labeled tracer (IC50) was estimated from a concentration-versus-dpm graph. The binding affinity (Ki) was calculated from the IC50 by applying the Cheng-Prussoff equation for single binding sites.

T1 sequence (P35346 whole entry): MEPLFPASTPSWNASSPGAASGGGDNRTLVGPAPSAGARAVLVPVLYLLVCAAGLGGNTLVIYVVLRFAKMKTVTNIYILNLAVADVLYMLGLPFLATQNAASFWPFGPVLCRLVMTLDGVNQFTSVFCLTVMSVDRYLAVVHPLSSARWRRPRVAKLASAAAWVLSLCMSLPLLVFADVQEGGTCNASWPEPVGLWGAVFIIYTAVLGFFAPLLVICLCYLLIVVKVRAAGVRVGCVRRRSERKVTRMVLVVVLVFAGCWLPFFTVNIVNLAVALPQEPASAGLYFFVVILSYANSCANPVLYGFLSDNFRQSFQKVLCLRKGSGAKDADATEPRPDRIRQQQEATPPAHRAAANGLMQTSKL

| Ki [nM] | Structure (SMILES) |
| --- | --- |
| 383 | CCOc1cc(CN2CCC(Nc3nc(Cl)nc4cc(Cl)c(F)cc34)CC2)ccc1OC [Example 15, (2,7-dichloro-6-fluoro-quinazolin-4-yl)-[1-(3-ethoxy-4-methoxy-benzyl)-piperidin-4-yl]-amine] |
| 2 | CCOc1cc(CN2CCC(Nc3ncnc4cc(Cl)ccc34)CC2)ccc1Cl [Example 23, [1-(4-chloro-3-ethoxy-benzyl)-piperidin-4-yl]-(7-chloro-quinazolin-4-yl)-amine] |
| 78 | C=CCOc1cc(CN2CCC(Nc3nc(Cl)ncc3OC)CC2)ccc1OC [Example 147, [1-(3-allyloxy-4-methoxy-benzyl)-piperidin-4-yl]-(2-chloro-5-methoxy-pyrimidin-4-yl)-amine] |
